According to ChEMBL document CHEMBL1201862, “PubChem BioAssay data set” (2004):
Calls of active or inactive are those of the source.

Legend:
[1] = system: Streptococcus sp. 'group A'; assay: Streptococcus pyogenes SK(-)GAS viability under kanamycin – luminescence, BacTiterGlo, confirmation, counter-screen for streptokinase expression inhibitor project, dose response (AID 1900); assay type: functional, organism-based
[2] = molecular target: T1, Sentrin-specific protease 7 (Homo sapiens, UniProt Q9BQF6); assay type: functional;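 also: Luminescence-based dose-response confirmation of ultra-high-throughput screening hits, measuring inhibition of SENP7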
T1 sequence (Q9BQF6 whole entry): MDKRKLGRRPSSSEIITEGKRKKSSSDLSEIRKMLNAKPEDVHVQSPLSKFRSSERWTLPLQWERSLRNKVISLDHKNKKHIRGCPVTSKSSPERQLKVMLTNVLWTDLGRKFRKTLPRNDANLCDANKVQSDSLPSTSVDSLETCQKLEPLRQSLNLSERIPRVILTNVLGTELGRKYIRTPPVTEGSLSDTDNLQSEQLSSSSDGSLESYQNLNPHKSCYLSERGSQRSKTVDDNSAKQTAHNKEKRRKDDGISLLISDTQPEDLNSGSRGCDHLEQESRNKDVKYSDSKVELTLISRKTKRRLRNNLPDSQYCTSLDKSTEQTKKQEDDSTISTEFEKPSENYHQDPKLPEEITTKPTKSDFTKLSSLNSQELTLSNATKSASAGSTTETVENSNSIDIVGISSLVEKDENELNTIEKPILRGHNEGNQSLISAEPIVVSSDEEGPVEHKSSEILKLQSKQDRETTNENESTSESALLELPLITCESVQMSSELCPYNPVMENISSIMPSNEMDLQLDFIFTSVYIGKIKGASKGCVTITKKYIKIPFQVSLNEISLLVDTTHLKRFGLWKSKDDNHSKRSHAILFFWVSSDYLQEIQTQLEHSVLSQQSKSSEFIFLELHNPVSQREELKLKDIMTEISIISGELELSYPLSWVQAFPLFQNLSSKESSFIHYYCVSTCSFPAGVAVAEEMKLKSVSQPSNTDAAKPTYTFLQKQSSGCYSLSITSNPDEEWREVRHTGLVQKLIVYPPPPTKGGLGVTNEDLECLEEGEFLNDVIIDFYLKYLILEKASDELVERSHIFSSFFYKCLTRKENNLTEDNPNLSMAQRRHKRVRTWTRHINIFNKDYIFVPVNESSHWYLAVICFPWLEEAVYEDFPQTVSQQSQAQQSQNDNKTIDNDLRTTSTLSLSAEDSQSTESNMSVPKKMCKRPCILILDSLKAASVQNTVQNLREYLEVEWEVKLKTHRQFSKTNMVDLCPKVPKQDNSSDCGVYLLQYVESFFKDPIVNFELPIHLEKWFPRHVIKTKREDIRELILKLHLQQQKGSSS

[3] = molecular target: T2, Sentrin-specific protease 8 (Homo sapiens, UniProt Q96LD8); assay type: functional;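 also: luminescence read-out of SENP8 inhibition, dose-response confirmation following an ultra-high-throughput screen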
T2 sequence (Q96LD8 whole entry): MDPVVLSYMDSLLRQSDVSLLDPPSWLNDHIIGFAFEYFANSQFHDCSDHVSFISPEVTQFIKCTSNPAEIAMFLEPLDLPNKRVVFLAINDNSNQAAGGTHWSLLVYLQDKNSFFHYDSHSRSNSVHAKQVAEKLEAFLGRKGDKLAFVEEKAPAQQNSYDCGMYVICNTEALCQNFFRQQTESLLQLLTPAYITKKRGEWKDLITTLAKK

[4] = molecular target: Protein kinase C theta type (Homo sapiens, UniProt Q04759); assay: Navigating the Kinome. Panel member name: PRKCQ; assay type: functional
[5] = molecular target: Inhibitor of nuclear factor kappa-B kinase subunit epsilon (Homo sapiens, UniProt Q14164); assay: Navigating the Kinome. Panel member name: IKBKE; assay type: functional
[6] = molecular target: Insulin-like growth factor 1 receptor (Homo sapiens, UniProt P08069); assay: Navigating the Kinome. Panel member name: IGF1R; assay type: functional
[7] = molecular target: Dual specificity tyrosine-phosphorylation-regulated kinase 1A (Homo sapiens, UniProt Q13627); assay type: functional;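 also: measured against DYRK1A as one member of a broad kinome profiling panel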
[8] = molecular target: Leucine-rich repeat serine/threonine-protein kinase 2 (Homo sapiens, UniProt Q5S007); assay type: functional;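 also: value from a broad kinome-wide panel profiling study in which LRRK2 was one of the kinases tested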
[9] = molecular target: Tyrosine-protein kinase receptor TYRO3 (Homo sapiens, UniProt Q06418); assay type: functional;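 also: TYRO3 value obtained as one member of a kinome-wide profiling panel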
[10] = molecular target: 5'-AMP-activated protein kinase catalytic subunit alpha-1 (Homo sapiens, UniProt Q13131); assay type: functional
[11] = molecular target: Death-associated protein kinase 3 (Homo sapiens, UniProt O43293); assay type: functional;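 also: measured as one member of a kinome-wide profiling panel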
[12] = molecular target: Dual specificity mitogen-activated protein kinase kinase 1 (Homo sapiens, UniProt Q02750); assay: Navigating the Kinome. Panel member name: MAP2K1; assay type: functional
Sequence of Dual specificity mitogen-activated protein kinase kinase 1 (Q02750 whole entry): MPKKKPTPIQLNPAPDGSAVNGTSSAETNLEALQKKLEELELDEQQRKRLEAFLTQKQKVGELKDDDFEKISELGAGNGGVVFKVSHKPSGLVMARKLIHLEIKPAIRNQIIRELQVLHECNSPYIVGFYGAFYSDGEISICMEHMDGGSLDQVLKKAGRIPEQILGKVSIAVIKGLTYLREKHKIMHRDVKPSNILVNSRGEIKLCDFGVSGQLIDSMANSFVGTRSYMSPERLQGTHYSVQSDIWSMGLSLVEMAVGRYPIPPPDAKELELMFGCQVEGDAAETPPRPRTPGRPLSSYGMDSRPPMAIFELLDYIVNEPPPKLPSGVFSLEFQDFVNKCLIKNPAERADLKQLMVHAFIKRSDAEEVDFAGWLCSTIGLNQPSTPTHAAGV

Sequence of Inhibitor of nuclear factor kappa-B kinase subunit epsilon (Q14164 whole entry): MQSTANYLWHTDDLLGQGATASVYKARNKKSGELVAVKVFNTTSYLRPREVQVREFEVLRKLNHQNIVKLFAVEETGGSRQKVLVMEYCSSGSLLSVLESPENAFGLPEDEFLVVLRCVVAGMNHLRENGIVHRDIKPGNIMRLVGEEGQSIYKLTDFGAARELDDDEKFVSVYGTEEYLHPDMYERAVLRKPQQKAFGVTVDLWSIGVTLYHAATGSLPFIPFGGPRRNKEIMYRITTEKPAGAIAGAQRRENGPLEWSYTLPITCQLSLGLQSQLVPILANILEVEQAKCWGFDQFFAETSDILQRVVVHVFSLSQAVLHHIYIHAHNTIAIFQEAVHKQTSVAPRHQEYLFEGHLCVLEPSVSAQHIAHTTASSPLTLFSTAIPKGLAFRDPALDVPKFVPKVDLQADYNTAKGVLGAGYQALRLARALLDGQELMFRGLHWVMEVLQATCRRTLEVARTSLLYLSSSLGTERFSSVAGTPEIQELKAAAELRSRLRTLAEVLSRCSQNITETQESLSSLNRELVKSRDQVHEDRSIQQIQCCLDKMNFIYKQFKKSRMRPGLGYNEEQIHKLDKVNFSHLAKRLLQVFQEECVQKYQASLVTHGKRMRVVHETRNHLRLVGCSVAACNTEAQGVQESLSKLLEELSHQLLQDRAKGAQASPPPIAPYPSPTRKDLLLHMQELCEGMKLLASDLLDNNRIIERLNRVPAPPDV
Sequence of Insulin-like growth factor 1 receptor (P08069 31-736 limits assumed): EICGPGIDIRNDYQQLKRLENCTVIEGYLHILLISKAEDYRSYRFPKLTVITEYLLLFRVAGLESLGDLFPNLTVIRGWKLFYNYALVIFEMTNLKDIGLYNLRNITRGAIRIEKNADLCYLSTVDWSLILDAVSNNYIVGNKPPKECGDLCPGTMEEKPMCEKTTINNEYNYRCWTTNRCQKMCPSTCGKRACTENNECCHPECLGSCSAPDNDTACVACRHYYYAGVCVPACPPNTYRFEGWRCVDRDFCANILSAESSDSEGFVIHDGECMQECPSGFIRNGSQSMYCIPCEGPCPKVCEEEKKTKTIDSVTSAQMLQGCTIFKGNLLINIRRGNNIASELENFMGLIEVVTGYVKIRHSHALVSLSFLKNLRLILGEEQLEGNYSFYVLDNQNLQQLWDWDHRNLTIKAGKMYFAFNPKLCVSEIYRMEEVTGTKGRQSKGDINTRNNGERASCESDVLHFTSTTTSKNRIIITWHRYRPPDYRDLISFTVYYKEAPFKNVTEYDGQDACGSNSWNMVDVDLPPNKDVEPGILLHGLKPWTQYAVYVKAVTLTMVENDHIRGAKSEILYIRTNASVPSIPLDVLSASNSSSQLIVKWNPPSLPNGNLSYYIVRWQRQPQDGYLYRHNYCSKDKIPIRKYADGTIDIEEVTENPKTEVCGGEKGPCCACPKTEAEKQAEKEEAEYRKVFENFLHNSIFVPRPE
Sequence of Insulin-like growth factor 1 receptor (P08069 741-1367 limits assumed): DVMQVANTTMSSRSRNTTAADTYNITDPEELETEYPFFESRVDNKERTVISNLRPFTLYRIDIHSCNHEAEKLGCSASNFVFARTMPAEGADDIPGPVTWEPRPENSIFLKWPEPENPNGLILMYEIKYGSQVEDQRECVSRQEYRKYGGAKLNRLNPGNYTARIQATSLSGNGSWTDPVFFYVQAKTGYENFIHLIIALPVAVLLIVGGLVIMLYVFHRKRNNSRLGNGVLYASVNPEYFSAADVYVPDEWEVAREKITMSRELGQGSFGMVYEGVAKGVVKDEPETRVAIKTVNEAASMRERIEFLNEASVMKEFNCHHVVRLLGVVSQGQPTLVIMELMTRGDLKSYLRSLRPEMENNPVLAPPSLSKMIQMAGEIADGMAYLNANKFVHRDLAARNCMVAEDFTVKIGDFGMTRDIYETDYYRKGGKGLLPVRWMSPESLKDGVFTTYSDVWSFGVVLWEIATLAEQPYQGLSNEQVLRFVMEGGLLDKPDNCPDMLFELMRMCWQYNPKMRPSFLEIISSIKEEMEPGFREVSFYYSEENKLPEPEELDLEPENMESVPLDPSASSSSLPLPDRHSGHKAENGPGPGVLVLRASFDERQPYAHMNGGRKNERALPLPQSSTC
Sequence of Death-associated protein kinase 3 (O43293 whole entry): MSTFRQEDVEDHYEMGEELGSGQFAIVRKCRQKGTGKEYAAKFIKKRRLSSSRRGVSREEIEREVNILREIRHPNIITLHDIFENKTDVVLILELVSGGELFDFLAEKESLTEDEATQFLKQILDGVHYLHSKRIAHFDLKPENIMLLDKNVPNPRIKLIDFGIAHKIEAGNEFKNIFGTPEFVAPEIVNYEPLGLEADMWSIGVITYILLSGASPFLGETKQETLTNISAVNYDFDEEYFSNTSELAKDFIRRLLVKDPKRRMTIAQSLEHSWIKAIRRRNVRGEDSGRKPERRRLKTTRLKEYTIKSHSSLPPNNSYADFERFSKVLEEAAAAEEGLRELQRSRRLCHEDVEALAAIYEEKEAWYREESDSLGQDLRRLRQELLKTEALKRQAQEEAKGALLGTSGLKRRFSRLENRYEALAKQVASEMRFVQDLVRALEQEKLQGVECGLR
Sequence of 5'-AMP-activated protein kinase catalytic subunit alpha-1 (Q13131 whole entry): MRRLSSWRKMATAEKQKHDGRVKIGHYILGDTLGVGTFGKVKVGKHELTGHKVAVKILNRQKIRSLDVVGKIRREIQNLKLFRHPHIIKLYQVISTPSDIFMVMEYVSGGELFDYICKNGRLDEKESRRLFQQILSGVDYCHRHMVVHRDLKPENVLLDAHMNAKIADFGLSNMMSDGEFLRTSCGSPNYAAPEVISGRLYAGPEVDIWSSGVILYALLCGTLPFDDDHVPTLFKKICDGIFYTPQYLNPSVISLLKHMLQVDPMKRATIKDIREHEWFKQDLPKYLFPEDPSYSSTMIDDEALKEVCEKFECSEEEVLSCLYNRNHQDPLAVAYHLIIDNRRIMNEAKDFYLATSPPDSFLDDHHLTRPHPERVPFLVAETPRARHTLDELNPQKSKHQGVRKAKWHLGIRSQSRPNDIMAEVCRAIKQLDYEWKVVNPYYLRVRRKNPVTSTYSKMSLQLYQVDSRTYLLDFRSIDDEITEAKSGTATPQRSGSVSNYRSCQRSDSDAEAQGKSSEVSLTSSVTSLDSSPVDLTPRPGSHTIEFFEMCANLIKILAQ
Sequence of Tyrosine-protein kinase receptor TYRO3 (Q06418 whole entry): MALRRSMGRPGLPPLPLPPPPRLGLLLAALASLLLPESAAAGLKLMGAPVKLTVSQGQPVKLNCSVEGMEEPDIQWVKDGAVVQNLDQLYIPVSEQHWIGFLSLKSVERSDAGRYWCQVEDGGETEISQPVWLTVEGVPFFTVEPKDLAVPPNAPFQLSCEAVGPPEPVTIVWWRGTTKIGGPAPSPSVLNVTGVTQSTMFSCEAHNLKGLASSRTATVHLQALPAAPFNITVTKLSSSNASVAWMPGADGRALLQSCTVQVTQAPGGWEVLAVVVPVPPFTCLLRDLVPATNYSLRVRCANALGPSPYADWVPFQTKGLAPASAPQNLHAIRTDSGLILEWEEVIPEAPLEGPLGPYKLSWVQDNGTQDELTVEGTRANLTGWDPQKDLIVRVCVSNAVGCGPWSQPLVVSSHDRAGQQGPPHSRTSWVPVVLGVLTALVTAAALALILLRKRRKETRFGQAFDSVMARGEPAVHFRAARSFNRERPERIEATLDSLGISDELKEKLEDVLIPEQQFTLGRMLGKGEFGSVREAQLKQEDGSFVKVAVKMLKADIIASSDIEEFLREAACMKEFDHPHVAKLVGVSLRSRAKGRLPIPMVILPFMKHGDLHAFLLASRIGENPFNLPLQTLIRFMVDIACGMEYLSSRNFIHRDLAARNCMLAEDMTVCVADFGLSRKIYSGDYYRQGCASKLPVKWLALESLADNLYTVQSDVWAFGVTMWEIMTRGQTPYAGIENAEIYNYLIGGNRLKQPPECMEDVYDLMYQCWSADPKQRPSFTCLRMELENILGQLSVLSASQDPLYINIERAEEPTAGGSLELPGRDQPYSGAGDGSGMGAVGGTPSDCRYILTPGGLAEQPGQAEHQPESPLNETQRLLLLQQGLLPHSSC
Sequence of Protein kinase C theta type (Q04759 whole entry): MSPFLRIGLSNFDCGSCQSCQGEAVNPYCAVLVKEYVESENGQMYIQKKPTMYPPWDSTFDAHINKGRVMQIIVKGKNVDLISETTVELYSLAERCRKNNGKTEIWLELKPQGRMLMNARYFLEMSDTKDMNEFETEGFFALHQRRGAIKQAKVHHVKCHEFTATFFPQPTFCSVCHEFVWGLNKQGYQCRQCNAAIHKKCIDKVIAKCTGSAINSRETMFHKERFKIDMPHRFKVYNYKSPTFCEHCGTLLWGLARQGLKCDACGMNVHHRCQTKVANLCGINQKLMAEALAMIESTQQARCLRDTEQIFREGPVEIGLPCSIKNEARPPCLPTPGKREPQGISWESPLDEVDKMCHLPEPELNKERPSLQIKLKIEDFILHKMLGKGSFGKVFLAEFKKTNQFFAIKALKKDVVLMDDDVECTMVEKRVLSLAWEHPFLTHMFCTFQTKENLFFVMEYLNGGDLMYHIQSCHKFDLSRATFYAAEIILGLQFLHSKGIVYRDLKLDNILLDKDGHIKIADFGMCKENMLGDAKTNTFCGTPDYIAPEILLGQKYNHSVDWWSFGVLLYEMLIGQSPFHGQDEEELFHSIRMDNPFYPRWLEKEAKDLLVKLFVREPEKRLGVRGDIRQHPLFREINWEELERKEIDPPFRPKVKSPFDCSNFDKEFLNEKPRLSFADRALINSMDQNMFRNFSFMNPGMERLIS

With `CNC[C@H](Cc1ccccc1)NC[C@@H](Cc1cccc2ccccc12)NCCc1ccc(C)cc1` the EC50 [1] was 4.79 µM (active).
In the case of `Nc1nnc2c(n1)CCCC2`, the IC50 [2] is reported as 10.2 µM (active) and the IC50 [3] is reported as 10.8 µM (active).
`O=C(N/N=C/c1c(O)ccc2ccccc12)c1[nH]ncc1Br` was tested, and the IC50 [2] was 7.19 µM (active) and the IC50 [3] was > 100 µM (inactive).
For `Nc1c(-c2ccc(NC(=O)Nc3cccc(C(F)(F)F)c3)cc2)cnc2c(-c3ccc4c(c3)OCO4)cnn12`, the Ki [4] was > 2.51 µM (inactive), the Ki [5] was > 3.16 µM (inactive) and the Ki [6] was > 2.51 µM (inactive). The Ki [7] was > 2 µM (inactive), the Ki [8] was > 2.51 µM (inactive) and the Ki [9] was 1.26 µM (active). For the same molecule, the Ki [10] was > 3.16 µM (inactive), the Ki [11] was > 5.01 µM (inactive) and the Ki [12] was > 3.16 µM (inactive).
In the case of `O=C(Nc1cc(-c2c[nH]c3ncccc23)cc(Cl)n1)c1ccccc1`, the Ki [4] is reported as > 2.51 µM (inactive), the Ki [5] is reported as > 3.16 µM (inactive) and the Ki [6] is reported as > 2.51 µM (inactive). For the same molecule, the Ki [7] was 0.251 µM (active), the Ki [8] was > 2.51 µM (inactive) and the Ki [9] was > 3.16 µM (inactive). The Ki [10] was > 3.16 µM (inactive), the Ki [11] was > 3.98 µM (inactive) and the Ki [12] was > 3.16 µM (inactive).
With `CCN1C(=Cc2sc3ccccc3[n+]2C)C=Cc2cccc(C)c21` the EC50 [1] was 4.08 µM (active).
